“And” between values parts separate entries of the source, which are not always exact repeats. Equal entries are not always repeated.
Key:
[1] = test system: rat collagen-induced arthritis model; assay: Anti-inflammatory evaluation using rat collagen-induced arthritis model (Test Example 3)
[2] = test system: Mouse colon cancer Colon 26; assay: Antitumor effect on mouse colon cancer Colon 26-transplanted mouse; assay type: in vivo; conditions: for Relative tumor volume mean ± SD: 12th day after initiation of administration, day of initiation = 1.0; for suppression of tumor growth (in words) / dose dependence of tumor growth suppression (in words): single administration; for dose dependence of tumor growth suppression (in words): doses of Table 1
Protocol: Mouse colon cancer Colon 26 cells subcutaneously subcultured in a BALB/c mouse were prepared in the form of a block which measured about 2 mm on each side, and the block was subcutaneously transplanted on the dorsal part of a CDF1 mouse using a trocar. […] The tumor volume on the day of initiation of administration was taken as 1.0, and while taking the 12th day after the initiation of administration as the day of determination, the relative tumor volume of each administered group was determined. The dose in the compounds of the present invention is converted to that of MTX.

[3] = test system: rat collagen-induced arthritis model; assay: Anti-inflammatory evaluation 2 using rat collagen-induced arthritis model (Test Example 4); assay type: in vivo; conditions: 8th, 15th and 22nd day after sensitization
Protocol: The test was carried out in the same manner as in Test Example 3. […] The groups administered with 1.00 mg/kg (convert to dose of MTX) and 1.25 mg/kg (convert to dose of MTX) of MTX_G-40, and the group administered with 2.5 mg/kg of MTX were administered with the drug through the tail vein on the 1st day, 8th day, 15th day and 22nd day after sensitization.

[4] = once 25 mg/kg in terms of MTX, tail vein
[5] = once 25 mg/kg in terms of MTX, tail vein, 25 mg/kg
[6] = once 50 mg/kg in terms of MTX, tail vein
[7] = 15 mg/kg/day tail vein, 5 successive days (total 75 mg/kg)

## PEG-Asp40(α-Tyramine-MTX)-Ac [MTX_A-40]
[1]; 2.5 mg/kg on 1st day, or 1.25 mg/kg on 1st and 8th day after sensitization, in terms of MTX, tail vein
  anti-inflammatory effect, arthritis score of left footpad (FIG. 2): delayed the time of onset of inflammation
[2]; [4]
  Toxicity (death/n): 0/3
[2]; [5]
  Relative tumor volume mean ± SD: 6.8 and 6.8 ± 0.7
[2]; once 50 mg/kg in terms of MTX
  death of toxicity (in words): one animal died of toxicity
[2]; [6]
  Toxicity (death/n): 1/3
[2]; once 50 mg/kg in terms of MTX, tail vein, 50 mg/kg
  Relative tumor volume mean ± SD: 4.8 and 4.8 ± 2.8
[2]
  suppression of tumor growth (in words): strongly suppress the growth of tumor with a single administration
  dose dependence of tumor growth suppression (in words): tumor growth is suppressed in a manner dependent on the amount of administration

## PEG-Asp40(γ-Tyramine-MTX)-Ac [MTX_G-40]
[3]; 1.00 mg/kg (dose of MTX) tail vein on 1st
  anti-inflammatory effect, arthritis score of left footpad (FIG. 3): further delayed the time of onset of inflammation compared to MTX
[3]; 1.25 mg/kg (dose of MTX) tail vein on 1st
  anti-inflammatory effect, arthritis score of left footpad (FIG. 3): completely suppressed the onset of inflammation for the 28 days of monitoring

## PEG-Asp44(γ-Tyramine-MTX)-Ac [MTX_G-44]
[2]; once 12.5 mg/kg in terms of MTX, tail vein
  Toxicity (death/n): 0/3
[2]; once 12.5 mg/kg in terms of MTX, tail vein, 12.5 mg/kg
  Relative tumor volume mean ± SD: 8.2 and 8.2 ± 1.0
[2]; once 25 mg/kg in terms of MTX
  death of toxicity (in words): one animal died of toxicity
[2]; [4]
  Toxicity (death/n): 1/3
[2]; [5]
  Relative tumor volume mean ± SD: 2.3 and 2.3 ± 1.1
[2]; [6]
  Toxicity (death/n): 1/3
  Relative tumor volume mean ± SD: 0.4 ± 0.1
[2]
  suppression of tumor growth (in words): strongly suppress the growth of tumor with a single administration
  dose dependence of tumor growth suppression (in words): tumor growth is suppressed in a manner dependent on the amount of administration

## CN(Cc1cnc2nc(N)nc(N)c2n1)c1ccc(C(=O)N[C@@H](CCC(=O)O)C(=O)O)cc1 [MTX, methotrexate, reference compound]
[3]; 2.5 mg/kg tail vein on 1st
  anti-inflammatory effect, arthritis score of left footpad (FIG. 3): delayed the time of onset of inflammation as compared with the control group
[1]; 2.5 mg/kg tail vein on 1st and 8th day after sensitization
  anti-inflammatory effect, arthritis score of left footpad (FIG. 2): no anti-inflammatory effects were observed
[2]; 15 mg/kg for 5 successive days
  antitumor effect (in words): an antitumor effect was not observed
[2]; [7]
  Toxicity (death/n): 0/3
  Relative tumor volume mean ± SD: 12.2 and 12.2 ± 8.1
[2]; 20 mg/kg for 5 successive days
  death of toxicity (in words): all of the animals died of toxicity
[2]; 20 mg/kg/day tail vein, 5 successive days (total 100 mg/kg)
  Toxicity (death/n): 3/3

Source: patent US9149540B2, “Polymer conjugate of folic acid or folic acid derivative” (Nippon Kayaku Kabushiki Kaisha, priority 2008, dated 2015)
